Consider 7 compounds from patent US10214502B2, “Method of inhibiting apolipoprotein-E expression while increasing expression of at least one of LDL-receptor protein or AbcA1 protein comprising administering a small compound” (California State University, Fresno, priority 2016, dated 2019).

Assay [1] has as its system AbcA1. Kind of assay: SDS-PAGE/Western blot of AbcA1 expression in E3 astrocyte cells. In kind it is cell-based, mouse. The settings on record: 10 μM, 24 hrs, Western blot, FIGS. 6 and 7. The source says: (§1) Western blot protocol and analysis was used to determine the LDLR levels in the E3 astrocyte cells. The western blot, otherwise known as a protein immunoblot, is a widely used analytical technique used to detect specific proteins in a cell culture or tissue sample. It uses gel electrophoresis to separate proteins by 3-D structure or denatured proteins by the length of the polypeptide. The proteins are then transferred to a membrane (typically nitrocellulose or PVDF), where they are stained with antibodies specific to the target protein. […] FIGS. 6 and 7 show gel images showing the effects the claimed compounds have on the target proteins. The protein bands show the presence and amount of each target protein present in the media from treated cells (compound numbers shown in the column headers).
(§2) In this case, after the 24-hour culture period, the treated cell media from cells treated with each respective compound were run by electrophoresis on polyacrylamide gel containing sodium dodecyl sulfate (SDS). The proteins from the SDS-PAGE process were then transferred to a nitrocellulose […] and stained.
(§3) FIGS. 6 and 7 show the presence of the following proteins in mouse E3 astrocyte cells: AbcA1, LDLR, ApoE3, and GAPDH. The GAPDH protein serves as the loading control protein for the western blot analysis. For each of the claimed compounds, FIGS. 6 and 7 show three samples run to determine the presence and amount of each indicated protein. The three samples for each treatment compound are indicated by the line under the compound number—the line stretches across three columns of protein bands.
AbcA1 protein plays a key role in regulating cholesterol in biological systems and therefore affects amyloid beta plaque formation. The goal of the biological screen (results shown in FIGS. 6 and 7) was to find compounds that prevent amyloid beta (Aβ) plaque formation, one of the deleterious causes of Alzheimer's Disease.
(§4) The E3 astrocyte cells (1.6×10^4 cells/96-well plate) were grown for 1 day in RPMI, followed by a 24 hour equilibration in serum-free Opti-MEM (Life Technologies). Treatments were carried out in triplicate with […] of fresh Opti-MEM containing 10 μM of compound or vehicle (0.1% DMSO) for 24 hours. After the incubation time, the cellular media was collected as samples.
(§5) The collected samples were prepared for SDS-PAGE and western blot analysis by centrifuging and then extracting the protein by TCA-precipitation. The extracted protein was then resuspended in a Tris buffer.
(§6) After incubation and collection, the samples were run on a SDS-polyacrylamide gel (10% SDS). The SDS-polyacrylamide gel comprises the following:
(§7) Each sample was prepared to run on the SDS-polyacrylamide gel. About 20 μL of each sample was prepared to be run in the gel. The samples were prepared comprising the following:
(§8) The SDS-PAGE process was run with SDS-PAGE running buffer (Tris base, glycine, and 10% SDS) at 150 V until the dye front reached the bottom of the gel.
(§9) For the western blot portion of the analysis, the separated protein bands in the gel are then transferred to a nitrocellulose membrane by methods well known in the art. Following the western blot transfer, the blot is rinsed several times with dH2O to remove the salts. After blocking unreacted sites on the nitrocellulose membrane, all protein bands are stained with 0.5% Ponceau S (0.5 g Ponceau S, 1 ml Glacial HAc, 99 ml dH2O) and the target protein antibody.
(§10) The antibodies used for staining AbcA1 were obtained from Novus (NB100-2068). The antibodies used for staining LDLR were obtained from MBL International (JM-3839). The antibodies used for staining intracellular apoE were obtained from Meridian Life Science (K74180B). The antibodies used for staining GAPDH were obtained from Santa Cruz (sc-25778).
On the technique in general: Immunoblotting shows a protein as a band on a membrane.

The subject of assay [2] is apoE3. Put plainly: ELISA of apoE3 levels in conditioned media of compound-treated mouse cortical astrocyte cells. It counts as cell-based. The settings on record: for ApoE3 Levels in Cell Media, Average of Three Tests / ApoE3 Levels in Cell Media, Test 1 / ApoE3 Levels in Cell Media, Test 2 / ApoE3 Levels in Cell Media, Test 3: 10 μM compound, 24 hours, normalized to cell protein, relative to DMSO treated cells. How it is done: ApoE inhibition can be readily determined by any one of several assays and techniques known to those of ordinary skill in the art, including the enzyme-linked immunosorbant assay (ELISA). In the experimental results shown in Table 2 and FIG. 5, the ELISA assay was carried out on cortical astrocyte cells from mice. Astrocyte cells produce apoE, LDLR and AbcA1 proteins.
The experiments involved treating mouse cortical astrocyte cells with the claimed compounds at 10 μM concentration for an incubation time of 24 hrs. DMSO solvent was used as a negative control, because the compounds were dissolved in DMSO when applied to the cells.
The ELISA technique involves immobilizing an apoE-specific capture antibody to a 96-well plate, addition of sample (conditioned medium from mouse cortical astrocyte cells treated with the compound for 24 hours), and detection of the bound apoE using a second apoE-specific biotinylated antibody and streptavidin-HRP.
The Mabtech ELISA kit detects the presence of the three apoE isoforms: apoE2, apoE3, and apoE4.
To obtain the data shown in Table 2 and FIG. 5, the mouse cortical astrocyte cells were maintained in DMEM medium (Invitrogen) supplemented with 10 mM HEPES, 1 mM sodium pyruvate, 4.5 g/L glucose, 1% penicillin/streptomycin, and 10% fetal bovine growth serum (Invitrogen) at 37° C., with 5% CO2.
The cells (6×10^4 cells/24-well plate) were grown for 1 day in RPMI, followed by a 24 hour equilibration in serum-free Opti-MEM (Life Technologies). Treatments were carried out in triplicate with […] of fresh Opti-MEM containing 10 μM of compound or vehicle (0.1% DMSO) for 24 hours. […] ApoE concentration in the sample was calculated based on a standard curve derived using known amounts of purified apoE (from Biodesign).
The protein levels in the cells in the 24-well plates were measured using BCA Protein Assay Kit (from Pierce) and used to normalize the data. […] Sample apoE3 concentrations were represented relative to the DMSO treated cells.
The bars in FIG. 5 reflect the respective mean level apoE3 in the media for each compound with an indication of one […].

In assay [3] the test system is LDLR. Put plainly: SDS-PAGE/Western blot of LDLR expression in E3 astrocyte cells. It counts as cell-based, mouse. The settings on record: 10 μM, 24 hrs, Western blot, FIGS. 6 and 7. How it is done: Experiments were set up to test whether the claimed compounds increase LDLR expression in cortical astrocyte cells. The experiments involved treating mouse cortical astrocyte cells (E3 astrocyte cells) with the claimed compounds at 10 μM concentration for an incubation time of 24 hrs. DMSO solvent was used as a negative control, because the compounds were dissolved in DMSO when applied to the cells.
as §1, §2, §3, §4, §5, §6, §7, §8, §9, §10

Assay [4] has as its system intracellular apoE. Put plainly: SDS-PAGE/Western blot of intracellular apoE levels in E3 astrocyte cells. In kind it is cell-based, mouse. The settings on record: 10 μM, 24 hrs, Western blot, FIGS. 6 and 7.
Text: as §1, §2
FIGS. 6 and 7 show the presence of the following proteins in mouse E3 astrocyte cells: AbcA1, LDLR, ApoE3, and GAPDH. […]
Intracellular apoE levels as measured in FIGS. 6 and 7 are the amounts of apoE inside of cells. […]

Entries after “also recorded” stand apart in the source; their conditions may differ.

With `O=S(=O)(NCc1ccccc1)c1cccc2ccccc12` [Compound 125], in assay [1], the “AbcA1 expression compared to the DMSO control” value is listed as “increase”. Also, in assay [2], the “ApoE3 Levels in Cell Media, Average of Three Tests” value (“ApoE3 Levels in Cell Media, Average” below) is listed as 88.78 % of the DMSO control; the “ApoE3 Levels in Cell Media, Test 1” value was 82.44 % of the DMSO control; the “ApoE3 Levels in Cell Media, Test 2” value is given as 91.39 % of the DMSO control; the “ApoE3 Levels in Cell Media, Test 3” value was 92.51 % of the DMSO control. The “LDLR expression (amount of LDLR protein) compared to the DMSO control” value (“LDLR expression … compared to the DMSO control” for short) in assay [3] was “increased”.
With `O=S(=O)(Nc1ccc(Br)cc1)c1ccc2ccccc2c1` [Compound 103], the “AbcA1 expression compared to the DMSO control” value in assay [1] is given as “increase”. Moreover, in assay [2], the “ApoE3 Levels in Cell Media, Average” value was 109.1222 % of the DMSO control; the “ApoE3 Levels in Cell Media, Test 1” value is listed as 84.78 % of the DMSO control; the “ApoE3 Levels in Cell Media, Test 2” value was 113.1319 % of the DMSO control; the “ApoE3 Levels in Cell Media, Test 3” value is given as 129.4577 % of the DMSO control. For the same compound, the “LDLR expression … compared to the DMSO control” value in assay [3] is given as “increased”.
Regarding `O=S(=O)(c1ccc(-c2ccccc2)cc1)N1CCOCC1` [Compound 134], the “AbcA1 expression compared to the DMSO control” value in assay [1] was “increase”. Besides, in assay [2], the “ApoE3 Levels in Cell Media, Average” value was 84.75 % of the DMSO control; the “ApoE3 Levels in Cell Media, Test 1” value is on record as 81.07 % of the DMSO control; the “ApoE3 Levels in Cell Media, Test 2” value was 90.3 % of the DMSO control; the “ApoE3 Levels in Cell Media, Test 3” value is recorded as 82.89 % of the DMSO control. In addition, in assay [3], the “LDLR expression … compared to the DMSO control” value is listed as “increased”.
As for `c1ccc(C(c2ccccc2)(c2ccc3ccccc3c2)N2CCOCC2)cc1` [Triarylmethyl Amine Compound No. 38, reference compound], the “AbcA1 expression compared to the DMSO control” value in assay [1] was “significantly decrease or inhibit; also recorded: decrease”. Moreover, in assay [2], the “ApoE3 Levels in Cell Media, Average” value was 79.07 % of the DMSO control; the “ApoE3 Levels in Cell Media, Test 1” value is 76.4862 % of the DMSO control; the “ApoE3 Levels in Cell Media, Test 2” value was 92.35 % of the DMSO control; the “ApoE3 Levels in Cell Media, Test 3” value is given as 68.38 % of the DMSO control. The “apoE (apoE3) expression compared to the control DMSO, in words” value in assay [2] (10 μM, 24 hrs, ELISA of media) is recorded as “effectively decrease”.
As for `CCN(CC)Cc1ccc2ccccc2c1` [Compound 140], in assay [1], the “AbcA1 expression compared to the DMSO control” value was “increases AbcA1 expression significantly; also recorded: increase”. Moreover, in assay [2], the “ApoE3 Levels in Cell Media, Average” value is listed as 90.9673 % of the DMSO control; the “ApoE3 Levels in Cell Media, Test 1” value is 91.46 % of the DMSO control; the “ApoE3 Levels in Cell Media, Test 2” value was 97.9104 % of the DMSO control; the “ApoE3 Levels in Cell Media, Test 3” value is listed as 83.54 % of the DMSO control. In addition, the “LDLR expression … compared to the DMSO control” value in assay [3] was “increased; also recorded: increasing LDLR expression slightly”.
Take `CCCCN(CCCC)S(=O)(=O)c1cccc2ccccc12` [Compound 127, naphthalene-1-sulfonic acid dibutylamide]: in assay [1], the “AbcA1 expression compared to the DMSO control” value is recorded as “increases”. Moreover, the “intracellular apoE expression/levels compared to the DMSO control” value in assay [4] is on record as “decreasing”. Besides, in assay [2], the “ApoE3 Levels in Cell Media, Average” value is given as 75.73 % of the DMSO control; the “ApoE3 Levels in Cell Media, Test 1” value is recorded as 75.36 % of the DMSO control; the “ApoE3 Levels in Cell Media, Test 2” value is given as 78.18 % of the DMSO control; the “ApoE3 Levels in Cell Media, Test 3” value is 73.66 % of the DMSO control. Moreover, in assay [3], the “LDLR expression … compared to the DMSO control” value is reported as “increased”.
As to `CCCCN(CCCC)Cc1ccc2ccccc2c1` [Compound 139], the “AbcA1 expression compared to the DMSO control” value in assay [1] is given as “decreases AbcA1 expression significantly; also recorded: decrease”. In assay [2], the “ApoE3 Levels in Cell Media, Average” value was 74.779 % of the DMSO control; the “ApoE3 Levels in Cell Media, Test 1” value is reported as 67.21 % of the DMSO control; the “ApoE3 Levels in Cell Media, Test 2” value is 81.69 % of the DMSO control; the “ApoE3 Levels in Cell Media, Test 3” value was 75.44 % of the DMSO control. The “LDLR expression … compared to the DMSO control” value in assay [3] was “increased”.
